Like-named read-outs stand apart in the source and are kept apart here.
Tests used:
[1] = test system: blood cancer cell lines (e.g. HL-60, Jurkat, Raji, Ramos, Daudi, MOLT-4); test: Cell based assay, cell viability (CellTiter-Glo), blood cancer cell lines; details: Homo sapiens
How it was run: (§1)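 Read-out is ATP-dependent luminescence (CellTiter-Glo) taken after 72 h of exposure to compound at final concentrations from 0 to 2 μM. Cells were plated 24 h beforehand.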

[2] = test system: pancreatic cancer cell lines (e.g. MIA PaCa-2); test: Cell based assay, cell viability (CellTiter-Glo), pancreatic cancer cell lines; details: Homo sapiens
How it was run: as §1

[3] = test system: cervical carcinoma cell lines; test: Cell based assay, cell viability (CellTiter-Glo), cervical carcinoma cell lines; details: Homo sapiens; HeLa cells
brain cancer cell lines = test: Cell based assay, cell viability (CellTiter-Glo), brain cancer cell lines; details: Homo sapiens
renal cancer cell lines = test: Cell based assay, cell viability (CellTiter-Glo), renal cancer cell lines; details: Homo sapiens; ACHN cells
How it was run: as §1

[4] = MV4-11, blood cancer cell line MV-4-11, 72 hours, read-out: IC50, MV-4-11
[5] = blood cancer cell line Daudi, 72 hours, read-out: IC50, Daudi
[6] = blood cancer cell line HL-60, 72 hours, read-out: IC50, HL-60
[7] = blood cancer cell line Jurkat, 72 hours, read-out: IC50, Jurkat
[8] = blood cancer cell line MOLT-4, 72 hours, read-out: IC50, MOLT-4
[9] = blood cancer cell line Raji, 72 hours, read-out: IC50, Raji
[10] = blood cancer cell line Ramos (RA 1), 72 hours, read-out: IC50, Ramos (RA 1)
[11] = blood cancer cell line U-937, 72 hours, read-out: IC50, U-937
[12] = pancreatic cancer cell line AsPC-1, 72 hours, read-out: IC50, AsPC-1
[13] = pancreatic cancer cell line BxPC-3, 72 hours, read-out: IC50, BxPC-3
[14] = pancreatic cancer cell line CFPAC-1, 72 hours, read-out: IC50, CFPAC-1
[15] = pancreatic cancer cell line Capan-1, 72 hours, read-out: IC50, Capan-1
[16] = pancreatic cancer cell line Capan-2, 72 hours, read-out: IC50, Capan-2
[17] = pancreatic cancer cell line MIA PaCa-2, 72 hours, read-out: IC50, MIA PaCa-2
[18] = pancreatic cancer cell line PANC-1, 72 hours, read-out: IC50, PANC-1
[19] = U138-MG, U-138 MG cell line, read-out: IC50, Brain cancer cell line U-138 MG
[20] = T98G cell line, read-out: IC50, Brain cancer cell line T98G
[21] = U-251 MG cell line, read-out: IC50, Brain cancer cell line U-251 MG

Compound	IC50 [1, 4]	IC50 [1, 5]	IC50 [1, 6]	IC50 [1, 7]	IC50 [1, 8]	IC50 [1, 9]	IC50 [1, 10]	IC50 [1, 11]	IC50 [2, 12]	IC50 [2, 13]	IC50 [2, 14]	IC50 [2, 15]	IC50 [2, 16]	IC50 [2, 17]	IC50 [2, 18]	IC50 [3]	IC50 (brain cancer cell lines; [19])	IC50 (brain cancer cell lines; [20])	IC50 (brain cancer cell lines; [21])	IC50 (renal cancer cell lines)
CC(=O)c1c([S+]([O-])CC#N)[nH]c2c(Br)ccc(Cl)c2c1=O (centres unmarked) [Compound 65, 2-((3-acetyl-8-bromo-5-chloro-4-oxo-1,4-dihydroquinolin-2-yl)sulfinyl)acetonitrile]	> 2000 nM	> 2000 nM	> 2000 nM	> 2000 nM	> 2000 nM	> 2000 nM	> 2000 nM	> 2000 nM	> 2000 nM	> 2000 nM	> 10000 nM	> 2000 nM	> 2000 nM	> 2000 nM	> 2000 nM	> 10 µM	> 10000 nM	> 10000 nM	> 2000 nM	> 2000 nM
CC(=O)c1c(SCC#N)[nH]c2c(Br)ccc(Cl)c2c1=O [Compound 66, 2-((3-acetyl-8-bromo-5-chloro-4-oxo-1,4-dihydroquinolin-2-yl)thio)acetonitrile]	> 2000 nM	> 2000 nM	> 2000 nM	> 2000 nM	> 2000 nM	> 2000 nM	> 2000 nM	> 2000 nM	> 2000 nM	> 2000 nM	> 10000 nM	> 2000 nM	> 2000 nM	> 2000 nM	> 2000 nM	> 10 µM	> 10000 nM	> 10000 nM	> 2000 nM	> 2000 nM
CC(=O)c1c(S/C=C\C(=O)O)[nH]c2c(Br)ccc(Cl)c2c1=O [Compound 67, (Z)-3-((3-acetyl-8-bromo-5-chloro-4-oxo-1,4-dihydroquinolin-2-yl)thio)acrylic acid]	> 2000 nM	> 2000 nM	> 2000 nM	> 2000 nM	> 2000 nM	> 2000 nM	> 2000 nM	> 2000 nM	> 2000 nM	> 2000 nM	> 10000 nM	> 2000 nM	> 2000 nM	> 2000 nM	> 2000 nM	> 10 µM	> 10000 nM	> 10000 nM	> 2000 nM	> 2000 nM
CC(=O)c1c([S+]([O-])Cc2ccc(S(F)(F)(F)(F)F)cc2)[nH]c2c(Br)ccc(Cl)c2c1=O (centres unmarked) [Compound 68, 3-acetyl-8-bromo-5-chloro-2-((4-(pentafluoro-16-sulfanyl)benzyl)sulfinyl)quinolin-4(1H)-one]	1300 nM	1210 nM	1710 nM	1000 nM	1070 nM	1020 nM	1660 nM	> 2000 nM	> 2000 nM	> 2000 nM	> 10000 nM	> 2000 nM	> 2000 nM	1120 nM	> 2000 nM	> 2 µM	1140 nM	> 2000 nM	930 nM	> 2000 nM
CC(=O)c1c([S+]([O-])Cc2cccc(S(F)(F)(F)(F)F)c2)[nH]c2c(Br)ccc(Cl)c2c1=O (centres unmarked) [Compound 77, 3-acetyl-8-bromo-5-chloro-2-((3-(pentafluoro--sulfanyl)benzyl)sulfinyl)quinolin-4(1H)-one]	> 2000 nM	1420 nM	> 2000 nM	1120 nM	1350 nM	1330 nM	> 2000 nM	> 2000 nM	> 2000 nM	> 2000 nM	> 10000 nM	> 2000 nM	> 2000 nM	1390 nM	> 2000 nM	> 10 µM	1550 nM	> 2000 nM	1290 nM	> 2000 nM
CC(=O)c1c([S+]([O-])Cc2ccc(SC(F)(F)F)cc2)[nH]c2c(Cl)ccc(Cl)c2c1=O (centres unmarked) [Compound 79, 3-acetyl-5,8-dichloro-2-((4-((trifluoromethyl)thio)benzyl)sulfinyl)quinolin-4(1H)-one]	> 2000 nM	> 2000 nM	> 2000 nM	> 2000 nM	> 2000 nM	> 2000 nM	> 2000 nM	> 2000 nM	> 2000 nM	> 2000 nM	> 10000 nM	> 2000 nM	> 2000 nM	> 2000 nM	> 2000 nM	> 10 µM	> 10000 nM	> 10000 nM	> 2000 nM	> 2000 nM
CC(=O)c1c([S+]([O-])Cc2ccc(S(F)(F)(F)(F)F)cc2)[nH]c2c(F)ccc(F)c2c1=O (centres unmarked) [Compound 80, 3-acetyl-5,8-difluoro-2-((4-(pentafluoro--sulfanyl)benzyl)sulfinyl)quinolin-4(1H)-one]	> 2000 nM	> 2000 nM	> 2000 nM	> 2000 nM	> 2000 nM	> 2000 nM	> 2000 nM	> 2000 nM	> 2000 nM	> 2000 nM	> 10000 nM	> 2000 nM	> 2000 nM	> 2000 nM	> 2000 nM	> 10 µM	> 10000 nM	> 10000 nM	> 2000 nM	> 2000 nM

More lines, now with the values ahead:

IC50 [1, 4]	IC50 [1, 5]	IC50 [1, 6]	IC50 [1, 7]	IC50 [1, 8]	IC50 [1, 9]	IC50 [1, 10]	IC50 [1, 11]	IC50 [2, 12]	IC50 [2, 13]	IC50 [2, 14]	IC50 [2, 15]	IC50 [2, 16]	IC50 [2, 17]	IC50 [2, 18]	IC50 [3]	IC50 (brain cancer cell lines; [19])	IC50 (brain cancer cell lines; [20])	IC50 (brain cancer cell lines; [21])	IC50 (renal cancer cell lines)	Compound
> 2000 nM	> 2000 nM	> 2000 nM	> 2000 nM	> 2000 nM	> 2000 nM	> 2000 nM	> 2000 nM	> 2000 nM	> 2000 nM	> 10000 nM	> 2000 nM	> 2000 nM	> 2000 nM	> 2000 nM	> 10 µM	> 2000 nM	> 10000 nM	> 2000 nM	> 2000 nM	CC(=O)c1c([S+]([O-])Cc2ccc(C(=O)c3ccccc3)cc2)[nH]c2c(Br)ccc(Cl)c2c1=O (centres unmarked) [Compound 63, 3-acetyl-2-((4-benzoylbenzyl)sulfinyl)-8-bromo-5-chloroquinolin-4(1H)-one]
1470 nM	1430 nM	1880 nM	1130 nM	1300 nM	1110 nM	1870 nM	> 2000 nM	> 2000 nM	> 2000 nM	> 10000 nM	> 2000 nM	> 2000 nM	1370 nM	> 2000 nM	> 10 µM	1540 nM	> 10000 nM	1160 nM	> 2000 nM	CC(=O)c1c([S+]([O-])Cc2ccc(S(F)(F)(F)(F)F)cc2F)[nH]c2c(Br)ccc(Cl)c2c1=O (centres unmarked) [Compound 69, 3-acetyl-8-bromo-5-chloro-2-((2-fluoro-4-(pentafluoro-16-sulfanyl)benzyl)sulfinyl)quinolin-4(1H)-one]
> 2000 nM	> 2000 nM	> 2000 nM	> 2000 nM	> 2000 nM	> 2000 nM	> 2000 nM	> 2000 nM	> 2000 nM	> 2000 nM	> 10000 nM	> 2000 nM	> 2000 nM	> 2000 nM	> 2000 nM	> 10 µM	> 2000 nM	> 10000 nM	> 2000 nM	> 2000 nM	CC(=O)c1c([S+]([O-])Cc2ccc(C(F)(F)F)o2)[nH]c2c(F)ccc(F)c2c1=O (centres unmarked) [Compound 81, 3-acetyl-5,8-difluoro-2-(((5-(trifluoromethyl)furan-2-yl)methyl)sulfinyl)quinolin-4(1H)-one]

Reference: patent publication US11464770B2, “Anticancer pharmaceutical composition” (NATIONAL CANCER CENTER, priority 2016, dated 2022)
